# Experimental data reported in patent publication US12410153B2, “Compounds, compositions and methods” (Avalo Therapeutics, Inc., priority 2014, dated 2025).
# Tests used:
# Conditions in all cases: geometric mean
# [1] = molecular target: T1, NMDA-GluN2B receptors, human temporal cortex homogenate (Homo sapiens, UniProt Q05586+Q13224); assay: Radioligand binding, human temporal cortex homogenate
# T1 construct: temporal cortex homogenate (human); from tissue; host or cells: human temporal cortex homogenate
# Experimental: (§1) Radioligand binding assays were performed at room temperature (or 37° C.) in 96-well microtiter plates with a final assay volume of […] in 20 mM HEPES buffer (pH 7.4) containing 150 mM NaCl. […] Nonspecific binding was assessed using N-(3-chlorobenzyl)-4-iodobenzimidamide (final concentration, 10 μM), and total binding was measured by addition of DMSO (final concentration, 2%). L(tk−) cell membranes expressing human GluN1a/GluN2B receptors (final concentration, 40 pM) and [^3H]-[(E)-N1-(2-methoxybenzyl)-cinnamamidine] (final concentration, 1 nM) were added to all wells of the microtiter plate. After 3 h (24 h or 48 h) of incubation at room temperature (or 37° C.), samples were filtered through Packard GF/B filters (presoaked in 0.05% polyethylenimine [PEI; Sigma P-3143]) and washed 10 times with 1 mL of cold 20 mM HEPES buffer per wash. After vacuum drying of the filter plates, 50 μL of Packard Microscint-20 was added and the bound radioactivity determined in a Packard TopCount.
# (§2) Analogous binding experiments, to those described above for the cloned human receptor expressed in L(tk−) cells, were also performed using whole brain homogenate (rat), frontal cortex homogenate (dog and rhesus monkey), and temporal cortex homogenate (human).
# [2] = molecular target: T2, NMDA-GluN2B receptors, dog frontal cortex homogenate (Canis lupus familiaris, UniProt Q5R1P0+Q5R1P3); assay: Radioligand binding, dog frontal cortex homogenate
# T2 construct: frontal cortex homogenate (dog and rhesus monkey); from tissue; host or cells: dog frontal cortex homogenate
# Experimental: as §1, §2
# [3] = molecular target: T3, NMDA-GluN2B receptors, rat whole brain homogenate (Rattus norvegicus, UniProt P35439+Q00960); assay: Radioligand binding, rat whole brain homogenate
# T3 construct: performed using whole brain homogenate (rat); from tissue; host or cells: rat whole brain homogenate
# Experimental: as §1, §2
# T2 sequence (Q5R1P3 27-1485, other chains not shown): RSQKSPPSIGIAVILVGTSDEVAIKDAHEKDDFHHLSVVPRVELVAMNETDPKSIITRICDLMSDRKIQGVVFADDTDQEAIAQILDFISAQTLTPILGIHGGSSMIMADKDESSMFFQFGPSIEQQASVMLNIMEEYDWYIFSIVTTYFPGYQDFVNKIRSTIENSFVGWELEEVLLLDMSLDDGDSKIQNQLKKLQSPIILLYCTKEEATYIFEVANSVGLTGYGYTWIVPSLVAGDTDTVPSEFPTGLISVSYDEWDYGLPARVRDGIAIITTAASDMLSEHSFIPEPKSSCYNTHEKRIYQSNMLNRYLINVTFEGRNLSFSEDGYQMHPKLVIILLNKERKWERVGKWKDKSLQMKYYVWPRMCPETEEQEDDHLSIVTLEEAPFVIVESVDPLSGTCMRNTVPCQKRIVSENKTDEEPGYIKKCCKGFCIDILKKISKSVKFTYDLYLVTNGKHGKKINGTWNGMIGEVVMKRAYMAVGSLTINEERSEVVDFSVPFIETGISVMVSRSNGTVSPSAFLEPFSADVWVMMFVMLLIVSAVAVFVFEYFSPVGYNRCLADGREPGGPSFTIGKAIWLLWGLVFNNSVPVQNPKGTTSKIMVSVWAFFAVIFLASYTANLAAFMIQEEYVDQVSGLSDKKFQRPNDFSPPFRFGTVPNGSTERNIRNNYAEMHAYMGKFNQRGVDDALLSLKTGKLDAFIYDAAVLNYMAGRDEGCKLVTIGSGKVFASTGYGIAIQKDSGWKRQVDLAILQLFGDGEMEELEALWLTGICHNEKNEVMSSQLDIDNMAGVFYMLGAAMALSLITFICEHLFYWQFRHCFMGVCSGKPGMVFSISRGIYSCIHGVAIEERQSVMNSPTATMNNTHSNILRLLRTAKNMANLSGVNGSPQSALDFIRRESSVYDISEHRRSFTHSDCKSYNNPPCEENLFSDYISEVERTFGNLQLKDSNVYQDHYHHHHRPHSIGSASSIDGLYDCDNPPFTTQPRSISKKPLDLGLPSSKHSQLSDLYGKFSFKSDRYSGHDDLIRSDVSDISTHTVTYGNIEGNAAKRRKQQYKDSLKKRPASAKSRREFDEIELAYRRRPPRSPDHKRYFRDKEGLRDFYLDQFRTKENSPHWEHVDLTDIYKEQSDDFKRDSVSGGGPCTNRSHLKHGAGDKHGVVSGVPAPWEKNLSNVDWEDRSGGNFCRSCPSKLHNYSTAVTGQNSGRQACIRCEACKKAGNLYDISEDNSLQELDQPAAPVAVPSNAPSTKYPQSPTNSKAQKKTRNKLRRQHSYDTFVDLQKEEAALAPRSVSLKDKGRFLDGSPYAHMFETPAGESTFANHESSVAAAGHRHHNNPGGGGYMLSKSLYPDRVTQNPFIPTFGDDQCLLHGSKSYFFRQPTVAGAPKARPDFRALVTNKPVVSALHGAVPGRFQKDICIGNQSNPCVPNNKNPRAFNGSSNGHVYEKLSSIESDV
# T3 sequence (Q00960 27-1482, other chains not shown): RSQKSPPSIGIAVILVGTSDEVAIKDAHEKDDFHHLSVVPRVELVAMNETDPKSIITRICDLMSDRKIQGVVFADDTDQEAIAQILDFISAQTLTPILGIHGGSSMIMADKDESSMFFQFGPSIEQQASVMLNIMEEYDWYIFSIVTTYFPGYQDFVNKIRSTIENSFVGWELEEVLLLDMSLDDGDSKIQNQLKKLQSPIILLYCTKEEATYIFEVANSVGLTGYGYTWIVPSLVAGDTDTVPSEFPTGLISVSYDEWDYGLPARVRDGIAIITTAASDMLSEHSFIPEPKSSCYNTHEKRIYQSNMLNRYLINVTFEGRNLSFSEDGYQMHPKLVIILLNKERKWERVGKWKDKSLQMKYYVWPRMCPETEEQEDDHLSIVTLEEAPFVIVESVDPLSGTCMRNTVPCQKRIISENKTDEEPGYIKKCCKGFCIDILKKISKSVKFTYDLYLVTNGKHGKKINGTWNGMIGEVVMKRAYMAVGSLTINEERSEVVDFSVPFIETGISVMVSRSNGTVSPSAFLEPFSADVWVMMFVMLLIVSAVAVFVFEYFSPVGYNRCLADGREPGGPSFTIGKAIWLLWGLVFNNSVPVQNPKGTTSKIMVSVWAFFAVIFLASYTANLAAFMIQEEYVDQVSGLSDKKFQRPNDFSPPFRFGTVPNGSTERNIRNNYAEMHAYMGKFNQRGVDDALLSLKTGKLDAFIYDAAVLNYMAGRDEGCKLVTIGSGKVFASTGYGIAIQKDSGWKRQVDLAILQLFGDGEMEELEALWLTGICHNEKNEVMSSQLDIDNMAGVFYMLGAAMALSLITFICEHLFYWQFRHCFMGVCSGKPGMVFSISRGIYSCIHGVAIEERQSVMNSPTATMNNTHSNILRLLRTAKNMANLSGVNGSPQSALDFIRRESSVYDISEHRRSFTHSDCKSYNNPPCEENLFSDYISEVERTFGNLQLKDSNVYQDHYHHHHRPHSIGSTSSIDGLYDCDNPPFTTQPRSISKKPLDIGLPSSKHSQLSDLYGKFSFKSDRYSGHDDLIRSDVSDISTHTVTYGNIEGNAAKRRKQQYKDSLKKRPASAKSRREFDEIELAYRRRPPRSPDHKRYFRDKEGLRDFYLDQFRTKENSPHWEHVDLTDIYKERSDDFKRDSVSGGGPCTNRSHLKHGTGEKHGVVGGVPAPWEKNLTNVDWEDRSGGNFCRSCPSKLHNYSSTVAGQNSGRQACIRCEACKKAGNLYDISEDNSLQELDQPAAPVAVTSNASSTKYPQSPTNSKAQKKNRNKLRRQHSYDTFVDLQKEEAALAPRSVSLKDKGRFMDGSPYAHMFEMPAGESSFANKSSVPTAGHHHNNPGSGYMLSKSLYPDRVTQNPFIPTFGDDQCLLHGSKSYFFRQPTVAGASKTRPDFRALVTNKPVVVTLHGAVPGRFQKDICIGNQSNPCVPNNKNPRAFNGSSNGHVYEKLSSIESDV
# T1 sequence (Q13224 27-1484, other chains not shown): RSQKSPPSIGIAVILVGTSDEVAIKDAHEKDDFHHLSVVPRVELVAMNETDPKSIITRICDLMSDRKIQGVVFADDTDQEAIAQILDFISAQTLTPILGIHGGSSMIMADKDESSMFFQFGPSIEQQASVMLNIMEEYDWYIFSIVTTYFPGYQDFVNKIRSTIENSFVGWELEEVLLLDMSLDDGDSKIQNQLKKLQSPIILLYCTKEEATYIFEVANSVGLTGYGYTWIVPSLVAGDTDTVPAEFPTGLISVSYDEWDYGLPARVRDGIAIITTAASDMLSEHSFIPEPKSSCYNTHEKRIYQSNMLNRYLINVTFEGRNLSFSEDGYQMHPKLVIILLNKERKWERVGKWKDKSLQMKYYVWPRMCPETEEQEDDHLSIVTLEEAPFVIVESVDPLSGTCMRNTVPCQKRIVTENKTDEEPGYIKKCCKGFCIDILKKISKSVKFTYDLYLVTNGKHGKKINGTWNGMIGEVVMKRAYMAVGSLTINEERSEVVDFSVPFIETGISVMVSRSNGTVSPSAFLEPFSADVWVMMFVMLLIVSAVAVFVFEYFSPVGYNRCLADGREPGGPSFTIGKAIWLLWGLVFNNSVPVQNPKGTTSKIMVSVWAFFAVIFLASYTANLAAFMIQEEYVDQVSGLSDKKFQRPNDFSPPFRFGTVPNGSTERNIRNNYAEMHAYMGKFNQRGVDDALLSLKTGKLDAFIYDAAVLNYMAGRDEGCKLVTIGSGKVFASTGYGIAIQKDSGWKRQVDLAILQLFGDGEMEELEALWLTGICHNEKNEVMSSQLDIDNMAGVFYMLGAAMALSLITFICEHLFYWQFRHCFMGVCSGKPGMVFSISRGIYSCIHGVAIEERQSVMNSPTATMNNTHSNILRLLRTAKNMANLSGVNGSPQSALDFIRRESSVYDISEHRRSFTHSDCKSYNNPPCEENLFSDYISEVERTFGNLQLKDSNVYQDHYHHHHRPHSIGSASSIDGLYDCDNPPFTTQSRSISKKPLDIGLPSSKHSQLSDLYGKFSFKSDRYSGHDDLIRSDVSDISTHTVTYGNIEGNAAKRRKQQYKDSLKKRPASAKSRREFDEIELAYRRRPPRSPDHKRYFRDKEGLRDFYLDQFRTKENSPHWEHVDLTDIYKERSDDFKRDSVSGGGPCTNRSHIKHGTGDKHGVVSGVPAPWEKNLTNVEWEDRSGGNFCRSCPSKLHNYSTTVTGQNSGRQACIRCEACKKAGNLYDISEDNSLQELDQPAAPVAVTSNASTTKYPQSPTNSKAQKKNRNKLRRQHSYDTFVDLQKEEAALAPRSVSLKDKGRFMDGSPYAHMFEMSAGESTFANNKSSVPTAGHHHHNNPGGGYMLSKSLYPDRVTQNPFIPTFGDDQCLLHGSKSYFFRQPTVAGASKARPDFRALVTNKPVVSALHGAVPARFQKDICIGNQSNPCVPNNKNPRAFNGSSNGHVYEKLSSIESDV
compound,measurement,setting,value
"Cc1ccc(COC(=O)N2CC[C@H](CNc3ncccn3)[C@H](F)C2)cc1 [Form II, 4-methylbenzyl (3S, 4R)-3-fluoro-4-[(pyrimidin-2-ylamino)methyl] piperidine-1-carboxylate]",Ki,[1]; 37° C.,8.1 nM
same,Ki,[1]; room temp.,3.1 nM
same,Ki,[2]; 37° C.,13 nM
same,Ki,[2]; room temp.,3.2 nM
same,Ki,[3]; 37° C.,14 nM
same,Ki,[3]; room temp.,3.3 nM
